In patent publication US20040146554A1, “Method for the administration of acid-labile drugs” (priority 2000, published 2004):

Tests used:
[1] = Suspending PPI capsule granules or tablets in calcium carbonate suspension; type: physicochemical; conditions: granular contents of capsule (20 mg omeprazole, 30 mg lansoprazole) in 10 cc of 4 gm % or 8 gm % calcium carbonate suspension
Procedure: More specifically, suspensions of calcium carbonate were produced by dissolving either 400 mg or 800 mg of calcium carbonate in 10 cc of water, resulting in suspensions of 4 gm % and 8 gm %, respectively. In separate 10 cc preparations of either strength of the calcium carbonate suspension, the granular contents of a 20 mg omeprazole capsule, a 30 mg lansoprazole capsule, a 20 mg rabeprazole tablet, and a 40 mg pantoprazole tablet were suspended. In approximately 30 minutes, the granules of the omeprazole and lansoprazole capsules were in complete suspension. In approximately two hours, the contents of the tablets of rabeprazole and pantoprazole had completely suspended.

gastric acid secretion = conditions: intact granules suspended in orange juice, via gastrostomy tube; cited from earlier work

Cc1c(OCC(F)(F)F)ccnc1C[S+]([O-])c1nc2ccccc2[nH]1 (centres unmarked) [lansoprazole]
time until granules were in complete suspension [1]: approximately 30 minutes | suppression of gastric acid secretion (gastric acid secretion): produced the desired effect of suppressing gastric acid secretion
